Results taken from ChEMBL document CHEMBL1641370, “Novel 6,7,8,9-tetrahydro-5H-1,4,7,10a-tetraaza-cyclohepta[f]indene analogues as potent and selective 5-HT(2C) agonists for the treatment of metabolic disorders” (Bioorg Med Chem Lett, 2011).

Columns and labels:
[1] = molecular target: T1, 5-hydroxytryptamine receptor 2C (Homo sapiens, UniProt P28335); assay: Agonist activity at human recombinant 5HT2C receptor expressed in CHOK1 cells assessed as induction of intracellular calcium release by FLIPR assay; assay type: functional, cell-based, CHO-K1
T1 sequence (P28335 whole entry): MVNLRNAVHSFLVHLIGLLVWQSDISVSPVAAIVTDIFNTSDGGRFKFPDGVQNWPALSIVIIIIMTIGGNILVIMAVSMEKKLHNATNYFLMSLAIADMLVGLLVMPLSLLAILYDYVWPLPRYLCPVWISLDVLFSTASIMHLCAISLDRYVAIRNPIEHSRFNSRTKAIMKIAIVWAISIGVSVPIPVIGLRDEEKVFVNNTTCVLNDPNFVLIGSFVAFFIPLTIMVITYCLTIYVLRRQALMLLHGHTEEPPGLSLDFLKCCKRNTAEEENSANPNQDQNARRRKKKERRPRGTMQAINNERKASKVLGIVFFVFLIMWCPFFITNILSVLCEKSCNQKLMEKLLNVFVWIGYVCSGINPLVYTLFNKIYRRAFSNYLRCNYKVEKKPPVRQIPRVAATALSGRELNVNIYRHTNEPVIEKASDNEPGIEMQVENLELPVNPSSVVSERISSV

Caco-2 = assay: Efflux ratio of permeability from […] of human Caco2 cells; assay type: ADME, cell-based
[2] = molecular target: T2, 5-hydroxytryptamine receptor 2A (Homo sapiens, UniProt P28223); assay: Agonist activity at human recombinant 5HT2A receptor expressed in CHOK1 cells assessed as induction of intracellular calcium release by FLIPR assay; assay type: functional, cell-based, CHO-K1
T2 sequence (P28223 whole entry): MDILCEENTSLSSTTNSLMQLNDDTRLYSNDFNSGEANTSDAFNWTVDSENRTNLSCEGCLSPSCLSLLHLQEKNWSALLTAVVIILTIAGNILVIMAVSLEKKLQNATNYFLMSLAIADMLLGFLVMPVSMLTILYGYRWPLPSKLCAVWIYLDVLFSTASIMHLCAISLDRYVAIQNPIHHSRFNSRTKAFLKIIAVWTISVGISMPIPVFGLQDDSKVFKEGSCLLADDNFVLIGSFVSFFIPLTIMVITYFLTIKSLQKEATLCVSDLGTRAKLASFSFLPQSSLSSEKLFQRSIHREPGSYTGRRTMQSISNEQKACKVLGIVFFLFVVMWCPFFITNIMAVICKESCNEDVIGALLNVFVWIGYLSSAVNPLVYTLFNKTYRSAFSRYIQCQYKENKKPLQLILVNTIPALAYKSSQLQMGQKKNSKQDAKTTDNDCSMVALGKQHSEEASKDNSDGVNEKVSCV

[3] = molecular target: T3, 5-hydroxytryptamine receptor 2B (Homo sapiens, UniProt P41595); assay: Agonist activity at human recombinant 5HT2B receptor expressed in CHOK1 cells assessed as induction of intracellular calcium release by FLIPR assay relative to 5-HT; assay type: functional, cell-based; conditions: CHO-K1
T3 sequence (P41595 whole entry): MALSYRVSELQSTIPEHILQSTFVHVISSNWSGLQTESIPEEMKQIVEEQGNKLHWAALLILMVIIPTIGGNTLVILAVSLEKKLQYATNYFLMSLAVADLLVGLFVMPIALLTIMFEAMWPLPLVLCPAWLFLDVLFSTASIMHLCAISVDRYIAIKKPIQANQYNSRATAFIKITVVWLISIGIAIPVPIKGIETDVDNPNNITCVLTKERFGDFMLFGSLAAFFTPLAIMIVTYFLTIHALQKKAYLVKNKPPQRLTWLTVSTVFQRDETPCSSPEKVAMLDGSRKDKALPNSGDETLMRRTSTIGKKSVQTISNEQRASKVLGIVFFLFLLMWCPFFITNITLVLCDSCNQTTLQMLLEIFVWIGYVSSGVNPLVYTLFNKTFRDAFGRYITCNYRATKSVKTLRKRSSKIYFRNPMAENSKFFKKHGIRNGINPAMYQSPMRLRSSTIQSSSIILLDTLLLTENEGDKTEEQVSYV

hERG (KCNH2) = hERG (KCNH2) (Homo sapiens, UniProt Q12809); assay: Inhibition of human ERG expressed in CHO cells at 10 uM by whole cell patch-clamp technique; assay type: cell-based; conditions: CHO cells expressing human ERG
Chain of hERG (KCNH2) (Q12809 whole entry): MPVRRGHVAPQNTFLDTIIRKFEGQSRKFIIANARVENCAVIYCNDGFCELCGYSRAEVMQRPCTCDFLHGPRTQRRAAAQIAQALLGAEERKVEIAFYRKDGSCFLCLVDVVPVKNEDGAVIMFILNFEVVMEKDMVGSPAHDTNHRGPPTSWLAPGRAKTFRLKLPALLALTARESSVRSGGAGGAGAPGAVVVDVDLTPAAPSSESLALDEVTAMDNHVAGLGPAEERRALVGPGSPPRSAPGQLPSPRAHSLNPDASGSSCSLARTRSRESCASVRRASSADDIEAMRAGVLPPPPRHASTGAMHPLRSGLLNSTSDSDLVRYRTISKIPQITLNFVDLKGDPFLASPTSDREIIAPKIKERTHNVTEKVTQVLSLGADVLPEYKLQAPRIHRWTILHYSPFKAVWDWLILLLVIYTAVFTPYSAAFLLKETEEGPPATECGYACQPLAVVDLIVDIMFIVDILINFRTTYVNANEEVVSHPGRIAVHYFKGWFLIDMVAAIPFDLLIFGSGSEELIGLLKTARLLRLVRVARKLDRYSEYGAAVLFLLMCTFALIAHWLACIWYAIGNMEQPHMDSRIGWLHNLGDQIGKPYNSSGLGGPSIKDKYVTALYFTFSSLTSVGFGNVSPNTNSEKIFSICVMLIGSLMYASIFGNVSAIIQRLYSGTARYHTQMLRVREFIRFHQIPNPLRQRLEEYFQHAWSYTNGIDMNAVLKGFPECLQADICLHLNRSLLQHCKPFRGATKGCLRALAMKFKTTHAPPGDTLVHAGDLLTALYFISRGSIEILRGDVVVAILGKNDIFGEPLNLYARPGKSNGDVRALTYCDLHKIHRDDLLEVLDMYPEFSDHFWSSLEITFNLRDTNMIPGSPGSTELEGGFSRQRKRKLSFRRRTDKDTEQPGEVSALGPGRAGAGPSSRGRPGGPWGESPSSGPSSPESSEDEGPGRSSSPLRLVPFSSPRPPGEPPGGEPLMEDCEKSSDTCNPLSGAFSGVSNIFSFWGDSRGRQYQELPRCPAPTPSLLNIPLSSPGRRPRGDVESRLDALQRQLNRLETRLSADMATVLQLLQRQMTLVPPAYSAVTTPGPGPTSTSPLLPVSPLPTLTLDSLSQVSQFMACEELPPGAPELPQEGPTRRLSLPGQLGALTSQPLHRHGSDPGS

[4] = molecular target: T4, 5-hydroxytryptamine receptor 2C (Homo sapiens) (UniProt P28335); assay: Agonist activity at human recombinant 5HT2C receptor expressed in CHOK1 cells assessed as induction of intracellular calcium release by FLIPR assay relative to 5-HT; assay type: functional, cell-based; conditions: CHO-K1
T4 sequence (whole entry): T1 sequence (P28335 whole entry)

[5] = molecular target: T2, 5-hydroxytryptamine receptor 2A; assay: Agonist activity at human recombinant 5HT2A receptor expressed in CHOK1 cells assessed as induction of intracellular calcium release by FLIPR assay relative to 5-HT; assay type: functional, cell-based; conditions: CHO-K1
[6] = Permeability from apical to basolateral side of human Caco2 cells; assay type: ADME, cell-based; conditions: caco-2, read-out: permeability
[7] = molecular target: T3, 5-hydroxytryptamine receptor 2B; assay: Agonist activity at human recombinant 5HT2B receptor expressed in CHOK1 cells assessed as induction of intracellular calcium release by FLIPR assay; assay type: functional, cell-based, CHO-K1
[8] = molecular target: Serotonin 2 receptors; 5-HT2a & 5-HT2c (Homo sapiens) (UniProt P28223+P28335); assay: Selectivity ratio of EC50 for human recombinant 5HT2A receptor to EC50 for human recombinant 5HT2C receptor
Chain of Serotonin 2 receptors; 5-HT2a & 5-HT2c (Homo sapiens) (P28223 whole entry, looked up, one chain of several): as the sequence (P28223 whole entry) above

Homo sapiens = species: Homo sapiens; assay: Selectivity ratio of EC50 for human recombinant 5HT2B receptor to EC50 for human recombinant 5HT2C receptor
[9] = Volume of distribution at steady state in Wistar rat at 10 mg/kg, iv and 30 mg/kg, po; assay type: ADME, organism-based; conditions: in vivo, read-out: Vdss
Rattus norvegicus [10] = assay: Dose normalized AUC in Wistar rat at 30 mg/kg, po; assay type: ADME, organism-based; design: dose 30 mg/kg, route oral; conditions: in vivo
[11] = Clearance in Wistar rat at 10 mg/kg, iv and 30 mg/kg, po; assay type: ADME, organism-based; conditions: in vivo
[12] = Mean residence time in Wistar rat at 30 mg/kg, po; assay type: ADME, organism-based; design: dose 30 mg/kg, route oral; conditions: in vivo
Rattus norvegicus [13] = assay: Antiobesity activity in Wistar rat cafteria diet model assessed as weight loss at 100 mg/kg, po after 3 day relative to control; assay type: functional
Rattus norvegicus [14] = assay: Antiobesity activity in Wistar rat cafteria diet model assessed as weight loss at 30 mg/kg, po after 3 day relative to control; assay type: functional
[15] = Ratio of drug level in CSF to fraction unbound in plasma of Wistar rat at 30 mg/kg, po at 2 hrs; assay type: ADME, organism-based; design: dose 30 mg/kg, route oral; conditions: in vivo
[16] = Mean residence time in Wistar rat at 10 mg/kg, iv; assay type: ADME, organism-based; design: dose 10 mg/kg, route intravenous; conditions: in vivo

EC50 [1] [nM] | Ratio (Caco-2) | EC50 [2] [nM] | Emax [3] [%] | Emax [4] [%] | Emax [5] [%] | Papp A→B [6] [×10⁻⁶ cm/s] | EC50 [7] [nM] | Ratio EC50 [8] | Ratio EC50 (Homo sapiens) | Vd [9] [L/kg] | AUC (Rattus norvegicus [10]) [nM·h] | clearance [11] [mL/min/kg] | MRT [12] [h] | Ratio [15] | MRT [16] [h] | SMILES | inhibition at 10 µM (hERG (KCNH2)) [%] | Activity (Rattus norvegicus [13]) [%] | Activity (Rattus norvegicus [14]) [%]
25 | 1.6 | 32 | 23 | 78 | 5 | 7.9 | 13 |  |  |  |  |  |  |  |  | Fc1cccc(OC2CN(c3c4c(nc5ccnn35)CCNCC4)C2)c1 | 93 |  | 
5.4 |  | 2350 | 97 | 103 | 51 |  | 94 | > 100 | < 20 |  |  |  |  |  |  | c1cc2nc3c(c(N4CCC4)n2n1)CCNCC3 |  |  | 
211 |  | 63 | 73 | 99 | 94 |  | 1480 |  |  |  |  |  |  |  |  | c1cncc(OC2CN(c3c4c(nc5ccnn35)CCNCC4)C2)c1 |  |  | 
65 | 2.1 | 40 | 43 | 88 | 9 | 10.1 | 215 |  |  |  |  |  |  |  |  | COc1cccc(OC2CN(c3c4c(nc5ccnn35)CCNCC4)C2)c1 | 97 |  | 
362 |  |  | 69 | 105 |  |  | 842 |  |  |  |  |  |  |  |  | CCN(C)c1c2c(nc3ccnn13)CCNCC2 |  |  | 
37 | 2.2 | 5170 | 71 | 93 | 29 | 10.3 | 706 |  |  |  |  |  |  |  |  | c1ccc(OC2CN(c3c4c(nc5ccnn35)CCNCC4)C2)nc1 | 78 |  | 
95 | 1.3 | 2630 | 31 | 76 | 21 | 10.4 | 503 |  |  | 11 | 720 | 14 | > 24 | 0.15 | 13 | COc1ccc(OC2CN(c3c4c(nc5ccnn35)CCNCC4)C2)cc1 | 93 | 3.3 | 3.2
4560 |  | 585 | 28 | 139 | 10 |  | 2850 |  |  |  |  |  |  |  |  | c1cc2nc3c(c(N4CCCCC4)n2n1)CCNCC3 |  |  | 
5 |  | 648 | 69 | 85 | 15 |  | 94 |  |  |  |  |  |  |  |  | Fc1ccccc1OC1CN(c2c3c(nc4ccnn24)CCNCC3)C1 |  |  | 
188 | 6.9 | 2050 | 60 | 96 | 35 | 0.62 | 1180 |  |  |  |  |  |  |  |  | CC(=O)N(C)c1ccc(OC2CN(c3c4c(nc5ccnn35)CCNCC4)C2)cc1 | 5 |  | 
574 |  | 1230 | 79 | 102 | 27 |  | 1160 |  |  |  |  |  |  |  |  | c1cc(OC2CN(c3c4c(nc5ccnn35)CCNCC4)C2)ccn1 |  |  | 
8.4 |  | 762 | 82 | 99 | 86 |  | 73 |  |  |  |  |  |  |  |  | O=C1Cc2cc(OC3CN(c4c5c(nc6ccnn46)CCNCC5)C3)ccc2N1 | 11 |  | 
63 |  | 138 | 97 | 104 | 62 |  | 602 |  |  |  |  |  |  |  |  | CCNc1c2c(nc3ccnn13)CCNCC2 |  |  | 
764 |  | 2310 | 36 | 110 | 15 |  | 2240 |  |  |  |  |  |  |  |  | c1cc2nc3c(c(N4CCCC4)n2n1)CCNCC3 |  |  | 
84 |  | 2680 | 89 | 84 | 48 |  | 379 |  |  |  |  |  |  |  |  | COc1ccccc1OC1CN(c2c3c(nc4ccnn24)CCNCC3)C1 | 88 |  | 
18 | 2.3 | 7770 | 58 | 95 | 22 | 13.3 | 218 |  |  |  |  |  |  |  |  | c1ccc(OC2CN(c3c4c(nc5ccnn35)CCNCC4)C2)cc1 | 81 |  | 
23 |  | 3 | 43 | 95 | 8 |  | 163 |  |  |  |  |  |  |  |  | Fc1ccc(OC2CN(c3c4c(nc5ccnn35)CCNCC4)C2)cc1 | 95 |  | 
